From patent publication US11998017B2, “Bio-pesticide for Japanese beetles” (priority 2022, dated 2024)

Test system: Japanese beetle
Assay: neurological response / paralysis of Japanese beetle after consuming or absorbing quisqualic acid
Assay type: in vivo, Popillia Japonica
From the text: The pesticide composition according to one or more embodiments described herein makes use of a phenomenon that is unique to the Japanese beetle. A primary active ingredient of the pesticide is the amino acid quisqualic acid, which elicits a unique neurological response specifically from the Japanese beetle. Quisqualic acid is naturally occurring in the Pelargonium and Quisqualic indica species of plants. As part of this disclosure, it was discovered that ingestion of the plants' essential oil is not required, but that the absorption of the plants' essential oil through contact by the Japanese beetle, can provoke a sufficient neurological response from the beetle, followed by 24-hour paralysis of the Japanese beetle. That is, the Japanese beetle need not consume the composition according to one or more embodiments herein. The composition is an effective pesticide through contact only by the Japanese beetle.
Japanese beetles that do land on the leaves, become saturated with the oil and absorb the paralysis-inducing quisqualic acid. Japanese beetles that do feed on the foliage may then also consume the quisqualic acid. […]

N[C@@H](Cn1oc(=O)[nH]c1=O)C(=O)O [quisqualic acid]
duration of paralytic state (after consumption or absorption through contact): 24 h | time until beetles fall into paralytic state (beetles that consume or absorb the quisqualic acid): 4 to 6 h
